Measured values as given in patent US7901716B2, “Active fraction having anti-cancer and anti-metastasis isolated from leaves and stems of ginseng” (MD Bioalpha Co., Ltd., priority 2002, dated 2011).

Procedure: In the present experiment, the number of immune cells was measured in co-administration of MB40100, which was expected to reduce the immune inhibition occurring with administration of cyclophosphamide.
24 hours and 48 hours after administration of cyclophosphamide (250 mg/kg), MB40100 was abdominally administered in mice at the different dosages (10 mg/kg, 20 mg/kg), respectively. After 7 days, the mice were killed to separate bone marrow cells and splenocytes, and then the number of these cells was counted pursuant to the tryphan blue exclusion method.
Peripheral blood was rapidly gathered from the eyeball distal vein using a heparin-treated capillary glass tube and collected in a K3-EDTA-treated blood-gathering tube, then examined it with an automatic globule analyzer.

## O=P1(N(CCCl)CCCl)NCCCO1 (stereo not drawn) [cyclophosphamide]
Cyclophosphamide 250 mg/kg alone
  reduction of number of WBC compared with normal mouse: about 30%
Cyclophosphamide 250 mg/kg alone, normal mouse 7800
  number of WBC in blood: 5300
Cyclophosphamide alone
  number of splenocytes less than normal mouse: about 72.8%
Cyclophosphamide alone, 7 days after
  decrease of bone marrow cell density versus normal mouse: 29.2%
Cyclophosphamide alone, 7 days after, normal mouse 41.1×10^6
  bone marrow cell density: 29.6×10^6 cells/ml
Cyclophosphamide alone, peripheral blood
  number of thrombocytes less than normal mouse: about 56%
